ChEMBL document CHEMBL4613261, “Metabolic and Pharmaceutical Aspects of Fluorinated Compounds” (J Med Chem, 2020)

Target: T1, Lysine decarboxylase (Hafnia alvei) (UniProt P05033)
T1 sequence (whole entry): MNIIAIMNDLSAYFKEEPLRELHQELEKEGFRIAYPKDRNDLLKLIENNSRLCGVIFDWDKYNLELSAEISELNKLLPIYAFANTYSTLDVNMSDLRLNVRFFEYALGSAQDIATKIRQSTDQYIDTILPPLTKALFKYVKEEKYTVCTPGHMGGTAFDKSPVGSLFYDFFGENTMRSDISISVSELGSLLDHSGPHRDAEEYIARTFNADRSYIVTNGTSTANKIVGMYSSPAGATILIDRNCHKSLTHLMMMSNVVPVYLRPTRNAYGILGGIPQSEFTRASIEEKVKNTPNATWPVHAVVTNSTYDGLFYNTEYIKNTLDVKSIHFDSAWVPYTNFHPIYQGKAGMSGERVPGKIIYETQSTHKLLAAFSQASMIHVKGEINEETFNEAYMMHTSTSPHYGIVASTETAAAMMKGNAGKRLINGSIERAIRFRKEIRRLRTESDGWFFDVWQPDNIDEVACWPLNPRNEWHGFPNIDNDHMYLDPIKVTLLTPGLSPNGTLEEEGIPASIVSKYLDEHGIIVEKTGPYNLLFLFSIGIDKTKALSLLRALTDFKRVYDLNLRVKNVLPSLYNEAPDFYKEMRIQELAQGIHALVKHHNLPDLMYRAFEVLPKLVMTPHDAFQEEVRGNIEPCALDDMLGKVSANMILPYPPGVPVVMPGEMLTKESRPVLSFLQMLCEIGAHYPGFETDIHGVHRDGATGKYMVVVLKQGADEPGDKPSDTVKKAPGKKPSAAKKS
Description: Time dependent inhibition of Hafnia alvei lysine decarboxylase assessed as inactivation half life using L-lysine by Kitz-Wilson analysis

Row | SMILES | T1/2
1 | C=C(F)[C@@](N)(CCCCN)C(=O)O | 3.6 min
2 | C=C(F)[C@](N)(CCCCN)C(=O)O | 2.8 min
